Reference: patent US20230091966A1, “METHODS FOR THE TREATMENT OF CARDIOVASCULAR DISEASE WITH CYCLODEXTRINS” (Beren Therapeutics, P.B.C., priority 2020, published 2023)

Tests used:
ABCA1 = details: human subject, IV 500-1,000 mg/kg every 4 weeks; FIGS. 5A-5D
Experimental: (§1) A human subject was treated with 2-hydroxypropyl-beta-cyclodextrin with single-ascending doses administered intravenously every 4 weeks according to Table 1 below. In this Example, a human subject was treated with 2-hydroxypropyl-beta-cyclodextrin as in Example 2, and ABCA1 and ABCG1 mRNA levels were measured. […] ABCA1 and ABCG1 are major cellular transporters resulting in cholesterol efflux to […] or mature HDL particles. In cardiovascular disease, expression of ABC transporters correlates with plaque stability and morbidity.

ABCG1 = details: human subject, IV 500-1,000 mg/kg every 4 weeks; FIGS. 5A-5D
Experimental: as §1

[1] = human subject, single-ascending IV doses 500-1,000 mg/kg every 4 weeks; plasma pre-dose vs post-dose; FIG. 3A
Experimental: A human subject was treated with 2-hydroxypropyl-beta-cyclodextrin with single-ascending doses administered intravenously every 4 weeks according to Table 1 below. For each dose, whole blood was collected pre-dose, post-dose (line flush), 1 hour post-dose, and 24 hours post-dose. Plasma was separated from the whole blood and subjected to a cholesterol crystal dissolution capacity (CCDC) assay using techniques similar to those described in the literature. The CCDC assay measures the ability of a sample to dissolve cholesterol crystals.

[2] = tested on: 24S-hydroxycholesterol and 27-hydroxycholesterol; details: human subject, IV 500-1,000 mg/kg every 4 weeks; FIGS. 4A-4C
Experimental: A human subject was treated with 2-hydroxypropyl-beta-cyclodextrin with single-ascending doses administered intravenously every 4 weeks according to Table 1 below.
In this Example, a human subject was treated with 2-hydroxypropyl-beta-cyclodextrin as in Example 2, and plasma levels of 24S-hydroxycholesterol and 27-hydroxycholesterol were measured.

[3] = pre-dose blood plasma incubated ex vivo with the substance; FIG. 3B
Experimental: For each dose, whole blood was collected pre-dose, post-dose (line flush), 1 hour post-dose, and 24 hours post-dose. Plasma was separated from the whole blood and subjected to a cholesterol crystal dissolution capacity (CCDC) assay using techniques similar to those described in the literature. The CCDC assay measures the ability of a sample to dissolve cholesterol crystals. Blood plasma pre-dose was also incubated ex vivo with 2-hydroxypropyl-beta-cyclodextrin and the ability of the plasma to dissolve cholesterol crystals was measured.

Substance: 2-hydroxypropyl-beta-cyclodextrin
- ABCA1 mRNA levels (ABCA1): increased mRNA levels
- ABCG1 mRNA levels (ABCG1): increased mRNA levels
- capability of blood plasma to dissolve cholesterol crystals (CCDC) [1]: increased capability of blood plasma to dissolve cholesterol crystals
- plasma level of 24S-hydroxycholesterol [2]: increased plasma levels
- plasma level of 27-hydroxycholesterol [2]: increased plasma levels
- total cholesterol levels [2]: remained stable
- capacity of plasma to dissolve cholesterol crystals (CCDC) [3]: increased capacity to dissolve cholesterol crystals
